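Five compound concentrations were applied to cells in 96-well plates for 48 hours; endpoints were derived by simple linear interpolation of the resulting dose-response curve. At the GI50, growth is halved. TGI: total growth inhibition.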
Experiments:
Experiment in all cases: NCI-60 cell line screen, 48 h
MDA-MB-435 = system: MDA-MB-435
OVCAR-8 ovarian = system: OVCAR-8 ovarian
NCI/ADR-RES ovarian = system: NCI/ADR-RES ovarian
SNB-75 CNS = system: SNB-75 CNS
EKVX NSCLC = system: EKVX NSCLC
U251 CNS = system: U251 CNS
NCI-H460 lung = system: NCI-H460 lung
M14 melanoma = system: M14 melanoma
786-0 renal = system: 786-0 renal
MDA-MB-231 breast = system: MDA-MB-231 breast
SK-MEL-2 melanoma = system: SK-MEL-2 melanoma
DU-145 prostate = system: DU-145 prostate
K-562 leukemia = system: K-562 leukemia
T-47D breast = system: T-47D breast
NCI-H522 lung = system: NCI-H522 lung
SNB-19 CNS = system: SNB-19 CNS
SK-MEL-28 melanoma = system: SK-MEL-28 melanoma
HL-60(TB) leukemia = system: HL-60(TB) leukemia
LOX IMVI melanoma = system: LOX IMVI melanoma
SN12C renal = system: SN12C renal
HT29 colon = system: HT29 colon
UACC-257 melanoma = system: UACC-257 melanoma
ACHN renal = system: ACHN renal
SW-620 colon = system: SW-620 colon
SF-268 CNS = system: SF-268 CNS
CCRF-CEM leukemia = system: CCRF-CEM leukemia
PC-3 prostate = system: PC-3 prostate
BT-549 breast = system: BT-549 breast
HOP-92 NSCLC = system: HOP-92 NSCLC
RPMI-8226 leukemia = system: RPMI-8226 leukemia
HCC-2998 colon = system: HCC-2998 colon
RXF 393 renal = system: RXF 393 renal
A498 renal = system: A498 renal
A549 NSCLC = system: A549 NSCLC
IGROV1 ovarian = system: IGROV1 ovarian
OVCAR-4 ovarian = system: OVCAR-4 ovarian
SK-MEL-5 melanoma = system: SK-MEL-5 melanoma
HCT-15 colon = system: HCT-15 colon
UO-31 renal = system: UO-31 renal
CAKI-1 renal = system: CAKI-1 renal
MCF7 breast = system: MCF7 breast
MOLT-4 leukemia = system: MOLT-4 leukemia
NCI-H23 lung = system: NCI-H23 lung
COLO 205 colon = system: COLO 205 colon
SF-295 CNS = system: SF-295 CNS
HCT-116 colon = system: HCT-116 colon
NCI-H226 lung = system: NCI-H226 lung
HS 578T breast = system: HS 578T breast
SR leukemia = system: SR leukemia
SK-OV-3 ovarian = system: SK-OV-3 ovarian
KM12 colon = system: KM12 colon
OVCAR-5 ovarian = system: OVCAR-5 ovarian
SF-539 CNS = system: SF-539 CNS
TK-10 renal = system: TK-10 renal
MALME-3M melanoma = system: MALME-3M melanoma
UACC-62 melanoma = system: UACC-62 melanoma
OVCAR-3 ovarian = system: OVCAR-3 ovarian
HOP-62 NSCLC = system: HOP-62 NSCLC

C#CCOc1cccc(-c2ncnc3cc(NC(=O)CCl)ccc23)c1
GI50 (MDA-MB-435): 0.993 µM | TGI (MDA-MB-435): 2.92 µM | GI50 (OVCAR-8 ovarian): 0.168 µM | TGI (OVCAR-8 ovarian): 6.59 µM | GI50 (NCI/ADR-RES ovarian): 1.05 µM | TGI (NCI/ADR-RES ovarian): 14.9 µM | GI50 (SNB-75 CNS): 1.15 µM | TGI (SNB-75 CNS): 9.48 µM | GI50 (EKVX NSCLC): 2.31 µM | TGI (EKVX NSCLC): 7.64 µM | GI50 (U251 CNS): 0.149 µM | TGI (U251 CNS): 2.76 µM | GI50 (NCI-H460 lung): 0.038 µM | TGI (NCI-H460 lung): 1.45 µM | GI50 (M14 melanoma): 0.66 µM | TGI (M14 melanoma): 2.64 µM | GI50 (786-0 renal): 0.208 µM | TGI (786-0 renal): 2.26 µM | GI50 (MDA-MB-231 breast): 0.481 µM | TGI (MDA-MB-231 breast): 4.57 µM | GI50 (SK-MEL-2 melanoma): 1.26 µM | TGI (SK-MEL-2 melanoma): 3.78 µM | GI50 (DU-145 prostate): 1.16 µM | TGI (DU-145 prostate): 2.47 µM | GI50 (K-562 leukemia): 0.0612 µM | GI50 (T-47D breast): 1.69 µM | TGI (T-47D breast): 5.02 µM | GI50 (NCI-H522 lung): 0.149 µM | TGI (NCI-H522 lung): 1.71 µM | GI50 (SNB-19 CNS): 1.14 µM | TGI (SNB-19 CNS): 4.86 µM | GI50 (SK-MEL-28 melanoma): 1.56 µM | TGI (SK-MEL-28 melanoma): 4.5 µM | GI50 (HL-60(TB) leukemia): 0.536 µM | TGI (HL-60(TB) leukemia): 4.36 µM | GI50 (LOX IMVI melanoma): 0.0385 µM | TGI (LOX IMVI melanoma): 1.34 µM | GI50 (SN12C renal): 0.115 µM | TGI (SN12C renal): 1.41 µM | GI50 (HT29 colon): 0.0502 µM | TGI (HT29 colon): 1.49 µM | GI50 (UACC-257 melanoma): 1.64 µM | TGI (UACC-257 melanoma): 5.19 µM | GI50 (ACHN renal): 0.419 µM | TGI (ACHN renal): 2.06 µM | GI50 (SW-620 colon): 0.0221 µM | TGI (SW-620 colon): 1.51 µM | GI50 (SF-268 CNS): 0.669 µM | TGI (SF-268 CNS): 2.94 µM | GI50 (CCRF-CEM leukemia): 0.0249 µM | GI50 (PC-3 prostate): 0.813 µM | TGI (PC-3 prostate): 4.84 µM | GI50 (BT-549 breast): 0.849 µM | TGI (BT-549 breast): 2.31 µM | GI50 (HOP-92 NSCLC): 1.42 µM | TGI (HOP-92 NSCLC): 3.32 µM | GI50 (RPMI-8226 leukemia): 1.67 µM | TGI (RPMI-8226 leukemia): 6.13 µM | GI50 (HCC-2998 colon): 1.09 µM | TGI (HCC-2998 colon): 2.75 µM | GI50 (RXF 393 renal): 1.4 µM | TGI (RXF 393 renal): 3.16 µM | GI50 (A498 renal): 3.83 µM | TGI (A498 renal): 15.9 µM | GI50 (A549 NSCLC): 0.451 µM | TGI (A549 NSCLC): 3.96 µM | GI50 (IGROV1 ovarian): 0.0612 µM | TGI (IGROV1 ovarian): 1.92 µM | GI50 (OVCAR-4 ovarian): 1.2 µM | TGI (OVCAR-4 ovarian): 2.59 µM | GI50 (SK-MEL-5 melanoma): 0.684 µM | TGI (SK-MEL-5 melanoma): 2.19 µM | GI50 (HCT-15 colon): 0.0179 µM | TGI (HCT-15 colon): 1.71 µM | GI50 (UO-31 renal): 0.36 µM | TGI (UO-31 renal): 2.1 µM | GI50 (CAKI-1 renal): 0.2 µM | TGI (CAKI-1 renal): 1.76 µM | GI50 (MCF7 breast): 0.0764 µM | TGI (MCF7 breast): 1.75 µM | GI50 (MOLT-4 leukemia): 0.043 µM | TGI (MOLT-4 leukemia): > 100 µM | GI50 (NCI-H23 lung): 0.886 µM | TGI (NCI-H23 lung): 3.14 µM | GI50 (COLO 205 colon): 0.0976 µM | TGI (COLO 205 colon): 2.77 µM | GI50 (SF-295 CNS): 2.44 µM | TGI (SF-295 CNS): 9.25 µM | GI50 (HCT-116 colon): 0.034 µM | TGI (HCT-116 colon): 1.48 µM | GI50 (NCI-H226 lung): 1.42 µM | TGI (NCI-H226 lung): 5.54 µM | GI50 (HS 578T breast): 1.92 µM | TGI (HS 578T breast): 14.5 µM | GI50 (SR leukemia): 0.0363 µM | TGI (SR leukemia): > 100 µM | GI50 (SK-OV-3 ovarian): 2.22 µM | TGI (SK-OV-3 ovarian): 7.38 µM | GI50 (KM12 colon): 0.622 µM | TGI (KM12 colon): 3.2 µM | GI50 (OVCAR-5 ovarian): 1.19 µM | TGI (OVCAR-5 ovarian): 2.86 µM | GI50 (SF-539 CNS): 1.31 µM | TGI (SF-539 CNS): 2.77 µM | GI50 (TK-10 renal): 1.26 µM | TGI (TK-10 renal): 2.81 µM | GI50 (MALME-3M melanoma): 1.28 µM | TGI (MALME-3M melanoma): 3.59 µM | GI50 (UACC-62 melanoma): 0.481 µM | TGI (UACC-62 melanoma): 3.07 µM | GI50 (OVCAR-3 ovarian): 0.617 µM | TGI (OVCAR-3 ovarian): 2.07 µM | GI50 (HOP-62 NSCLC): 2.36 µM | TGI (HOP-62 NSCLC): 7.18 µM
